# Laboratory results from patent publication US5888999A, “Method for treating anxiety with muscarinic cholinergic receptor agonists” (Eli Lilly and Company, priority 1997, dated 1999).
# Biological target: muscarinic acetylcholine receptors
# Test: inhibition of specific binding of ^3 H-Oxotremorine-M (^3 H-Oxo) to rat cortex
# Design: species or system rat (male Wistar)
# Conditions: ^3 H-Oxotremorine 1.0 nM, 30 min, 25° C.
# Text: The pharmacological properties of the compounds of the invention can be illustrated by determining their capability to inhibit the specific binding of ^3 H-Oxotremorine-M (^3 H-Oxo). Birdsdall N. J. M., Hulme E. C., and Burgen A. S. V. (1980). "The Character of Muscarinic Receptors in Different Regions of the Rat Brain". Proc. Roy. Soc. London (Series B) 207,1.
# ^3 H-Oxo labels muscarinic receptor in the CNS (with a preference for agonist domains of the receptors). Three different sites are labeled by ^3 H-Oxo. […] Using the present experimental conditions only the high and medium affinity sites are determined.
# The inhibitory effects of compounds on ^3 H-oxo binding reflects the affinity for muscarinic acetylcholine receptors.
# All preparations are performed at 0°-4° C. unless otherwise indicated. Fresh cortex (0.1-1 g) from male Wistar rats (150-250 g) is homogenized for 5-10 s in 10 mL […] Hepes pH: 7.4, with an Ultra-Turrax homogenizer. The homogenizer is rinsed with 10 mL of buffer and the combined suspension centrifuged for 15 min. at 40,000×g. The pellet is washed three times with buffer. In each step the pellet is homogenized as before in 2×10 mL of buffer and centrifuged for 10 min. at 40,000×g.
# The final pellet is homogenized in 20 mM Hepes pH: 7.4 (100 mL per g of original tissue) and used for binding assay. Aliquots of 0.5 mL is added 25 μL of test solution and 25 μL of ^3 H-Oxotremorine (1.0 nM, final concentration) mixed and incubated for 30 min. at 25° C. Non-specific binding is determined in triplicate using arecoline (1 μg/mL, final concentration) as the test substance. After incubation samples are added 5 mL of ice-cold buffer and poured directly onto Whatman GF/C glass fiber filters under suction and immediately washed 2 times with 5 mL of ice-cold buffer. The amount of radioactivity on the filters are determined by conventional liquid scintillation counting. Specific binding is total binding minus non specific binding.
# Test substances are dissolved in 10 mL water (if necessary heated on a steam-bath for less than 5 min.) at a concentration of 2.2 mg/mL. 25-75% inhibition of specific binding must be obtained before calculation of IC50. The test value will be given as IC50 (the concentration (nM) of the test substance which inhibits the specific binding of ^3 H-oxo by 50%).
# IC50 =(applied test substance concentration)×(Cx /Co
# where Co is specific binding in control assays and Cx is the specific binding in the test assay. (The calculations assume normal mass-action kinetics).
row,Structure (SMILES),IC50
1,"CCCCCSc1nccnc1OC1CN2CCC1CC2 (racemic) [Compound 7, (+/-)-3-Pentylthio-2-(1-azabicyclo[2.2.2]octyl-3-oxy)pyrazine]",0.016 µM
2,"c1cnc(OC2CN3CCC2CC3)cn1 (racemic) [Compound 8, (+/-)-2-(1-Azabicyclo[2.2.2]octyl-3-oxy)pyrazine]",1.04 µM
3,"CCCCCOc1nccnc1OC1CN2CCC1CC2 (racemic) [Compound 9, (+/-)-3-(1-Pentyloxy)-2-(1-azabicyclo[2.2.2]octyl-3-oxy)pyrazine]",0.036 µM
4,"COc1nccnc1OC1CN2CCC1CC2 (racemic) [Compound 10, (+/-)-3-Methoxy-2-(1-azabicyclo[2.2.2]octyl-3-oxy)pyrazine]",0.354 µM
5,CCOc1nccnc1OC1CN2CCC1CC2 (racemic) [Compound 11],0.056 µM
6,"CCCCCCSc1nccnc1OC1CN2CCC1CC2 (racemic) [Compound 12, (+/-)-3-(1-Hexylthio)-2-(1-azabicyclo[2.2.2]octyl-3-oxy)pyrazine]",0.025 µM
7,"CSc1nccnc1OC1CN2CCC1CC2 (racemic) [Compound 13, (+/-)-3-Methylthio-2-(1-azabicyclo[2.2.2]octyl-3-oxy)pyrazine]",0.074 µM
8,"CCSc1nccnc1OC1CN2CCC1CC2 (racemic) [Compound 14, (+/-)-3-Ethylthio-2-(1-azabicyclo[2.2.2]octyl-3-oxy)pyrazine]",0.026 µM
9,CCCSc1nccnc1OC1CN2CCC1CC2 (racemic) [Compound 15],0.014 µM
10,CCCCCCCSc1nccnc1OC1CN2CCC1CC2 (racemic) [Compound 16],0.039 µM
11,"Clc1nccnc1O[C@H]1CN2CCC[C@@H]1C2 (relative stereo) [Compound 19, 3-Chloro-2-[endo-(+,-)-6-(1-azabicyclo[3.2.1]octyloxy)]-pyrazine]",0.121 µM
12,"Cc1nccnc1O[C@H]1CN2CCC[C@@H]1C2 (relative stereo) [Compound 20, 3-Methyl-2-[endo-(+,-)-6-(1-azabicyclo[3.2.1]octyloxy)]-pyrazine]",0.245 µM
13,"Clc1cncc(O[C@H]2CN3CCC[C@@H]2C3)n1 (relative stereo) [Compound 22, 6-Chloro-2-[endo-(+,-)-6-(1-azabicyclo[3.2.1]octyloxy)]-pyrazine]",0.14 µM
14,"CCCCOc1nccnc1O[C@H]1CN2CCC[C@@H]1C2 (relative stereo) [Compound 23, 3-(1-butyloxy)-2-[endo-(+,-)-6-(1-azabicyclo[3.2.1]octyloxy)]-pyrazine]",0.0049 µM
15,"CCCCSc1nccnc1O[C@H]1CN2CCC[C@@H]1C2 (relative stereo) [Compound 24, 3-(1-butylthio)-2-[endo-(+,-)-6-(1-azabicyclo[3.2.1]octyloxy)]-pyrazine]",0.0022 µM
16,"CCCSc1nccnc1O[C@H]1CN2CCC[C@@H]1C2 (relative stereo) [Compound 29, (±)-endo-2-Propylthio-3-(1-azabicyclo[3.2.1]octyl-6-oxy)pyrazine]",0.0017 µM
17,"CCCCCSc1nccnc1O[C@H]1CN2CCC[C@@H]1C2 (relative stereo) [Compound 30, (±)-endo-2-Pentylthio-3-(1-azabicyclo[3.2.1]octyl-6-oxy)pyrazine]",0.0044 µM
18,"CC(C)CSc1nccnc1O[C@H]1CN2CCC[C@@H]1C2 (relative stereo) [Compound 31, (±)-endo-2-(2-Methylpropylthio)-3-(1-azabicyclo[3.2.1]octyl-6-oxy)-pyrazine]",0.0034 µM
19,"CCSc1nccnc1O[C@H]1CN2CCC[C@@H]1C2 (relative stereo) [Compound 32, (±)-endo-2-Ethylthio-3-(1-azabicyclo[3.2.1]octyl-6-oxy)pyrazine]",0.0039 µM

row,Structure (SMILES),IC50
1,"FC(F)(F)CSc1nccnc1O[C@H]1CN2CCC[C@@H]1C2 (relative stereo) [Compound 33, (±)-endo-2-(2,2,2,-Trifluoroethylthio)-3-(1-azabicyclo[3.2.1]octyl-6-oxy)pyrazine]",0.0015 µM
2,"C/C=C/CSc1nccnc1O[C@H]1CN2CCC[C@@H]1C2 (relative stereo) [Compound 34, (±)-endo-2-(trans-2-Butenylthio)-3-(1-azabicyclo[3.2.1]octyl-6-oxy)pyrazine]",0.002 µM
3,"FC(F)(F)CCCSc1nccnc1O[C@H]1CN2CCC[C@@H]1C2 (relative stereo) [Compound 35, (±)-endo-2-(4,4,4-Trifluorobutylthio)-3-(1-azabicyclo[3.2.1]octyl-6-oxy)pyrazine]",0.0032 µM
4,"C=CCSc1nccnc1O[C@H]1CN2CCC[C@@H]1C2 (relative stereo) [Compound 36, (±)-endo-2-(2-propenylthio)-3-(1-azabicyclo[3.2.1]octyl-6-oxy)pyrazine]",0.00034 µM
5,"CC(C)CCSc1nccnc1O[C@H]1CN2CCC[C@@H]1C2 (relative stereo) [Compound 37, (±)-endo-2-(3-Methylbutylthio)-3-(1-azabicyclo[3.2.1]octyl-6-oxy)pyrazin]",0.0013 µM
6,"FC(F)(F)Oc1ccc(CSc2nccnc2O[C@H]2CN3CCC[C@@H]2C3)cc1 (relative stereo) [Compound 38, (±)-endo-2-(4-Trifluoromethoxybenzylthio)-3-(1-azabicyclo[3.2.1]octyl-6-oxy)pyrazine]",0.0062 µM
7,"CCCSc1cncc(O[C@H]2CN3CCC[C@@H]2C3)n1 (relative stereo) [Compound 39, (±)-endo-2-Propylthio-6-(1-azabicyclo[3.2.1]octyl-6-oxy)pyrazine]",0.01 µM
8,"FC(F)(F)CSc1cncc(O[C@H]2CN3CCC[C@@H]2C3)n1 (relative stereo) [Compound 40, (±)-endo-2-(2.2.2-Trifluoroethylthio)-6-(1-azabicyclo[3.2.1]octyl-6-oxy)pyrazine]",0.06 µM
9,"COCCSc1nccnc1O[C@H]1CN2CCC[C@@H]1C2 (relative stereo) [Compound 41, (±)-endo-2-(2-methoxyethylthio)-3-(1-azabicyclo[3.2.1octyl-6-oxy)pyrazine]",0.0032 µM
10,"C(=Cc1ccccc1)CSc1nccnc1O[C@H]1CN2CCC[C@@H]1C2 (relative stereo) [Compound 42, (±)-endo-2-(3-Phenyl-2-propenylthio)-3-(1-azabicyclo[3.2.1]octyl-6-oxy)pyrazine]",0.0091 µM
11,"CC(C)=CCCSc1nccnc1O[C@H]1CN2CCC[C@@H]1C2 (relative stereo) [Compound 43, (±)-endo-2-(4-Methyl-3-pentenylthio)-3-(1-azabicyclo[3.2.1]octyl-6-oxy)pyrazine]",0.0081 µM
12,CCCCSc1nccnc1OCCN(C)C [Compound 17],0.017 µM
13,"CCCCSc1nccnc1OCC[N+](C)(C)C [Compound 18, 3-(1-Butylthio)-2-(2-(trimethylamino)ethoxy)pyrazine iodide]",0.021 µM
14,"c1cnc(O[C@H]2CN3CCC[C@@H]2C3)cn1 [Compound 21, 2-[endo-(+,-)-6-(1-azabicyclo[3.2.1]octyloxy)]-pyrazine]",0.026 µM
15,"CN1[C@@H]2CC[C@H]1C[C@@H](Oc1cnccn1)C2 [Compound 25, endo-(8-methyl-8-azabicyclo[3.2.1]octyl-3-oxy)pyrazine]",0.18 µM
16,"CN(C)CCOc1cnccn1 [Compound 26, 2-(2-Dimethylaminoethoxy)pyrazine]",> 1 µM
17,"C[N+](C)(C)CCOc1cnccn1 [Compound 27, 2-(2-Trimethylaminoethoxy)pyrazine iodide]",> 1 µM
18,"CN1CCC[C@H]1COc1cnccn1 [Compound 28, (S)-2-(1-Methyl-2-pyrrolidinylmethoxy)pyrazine]",> 10 µM

# Tested on: dopamine receptors
# Test: not given
# Conditions: only at the 5-HT1A and dopamine receptors; cited from earlier work
row,Structure (SMILES),interaction at dopamine receptors
1,O=C1CC2(CCCC2)CC(=O)N1CCCCN1CCN(c2ncccn2)CC1 [Buspirone],reasonable potency

# Tested on: 5-HT1A receptor
# Test: not given
# Conditions: only at the 5-HT1A and dopamine receptors; cited from earlier work
row,Structure (SMILES),interaction at 5-HT1A receptors
1,O=C1CC2(CCCC2)CC(=O)N1CCCCN1CCN(c2ncccn2)CC1 [Buspirone],reasonable potency

# Tested on: M1-sites (muscarinic receptors)
# Test: not given
# Conditions: cited from earlier work
row,Structure (SMILES),selectivity for M1-sites
1,CN1CCN(CC(=O)N2c3ccccc3C(=O)Nc3cccnc32)CC1 [pirenzepine],selective for M1 -sites
